Laboratory results: US20220072162A1, “MAGNETIC RESONANCE IMAGING DRUG CONTAINING A DEUTERATED NATURAL BRANCHED-CHAIN AMINO ACID, AND DIAGNOSTIC METHOD USING SAID DRUG” (LIMITED LIABILITY COMPANY "SOLVEX" ("SOLVEX" LLC), priority 2018, published 2022)

What was measured:
[1] = Accumulation of freely diffusing deuterated compounds in organs and tissues; format: in vivo; conditions: authors' experiments and prior art
[2] = Text: This exchange lowers the concentration of the deuterium label, while simultaneously increasing the background signal of heavy water (DOH), which is evenly distributed throughout the body due to rapid diffusion. This process leads to a decrease in the contrast of the image, and also prevents quantitive evaluation of deuterated component concentration by comparison with the intensity of natural DOH signal.
[3] = Content of valine-d6 in tissues of mice with 4T1 breast carcinoma, 2H NMR of tissue extracts (Example 5); format: in vivo, Balb/c mice; conditions: for [valine-d6], 30 min.: 30 min after 20 mg i.p. to 20 g mouse; for [valine-d6], 1 hour: 1 hour after 20 mg i.p. to 20 g mouse
Method: After administration, the animal was kept in a separate cage with access to food and water. After a certain time after administration, the animal was devitalized by dislocation of the cervical vertebrae. Samples of animal organs and tissues were quickly removed and frozen in liquid nitrogen. Frozen samples were ground in a porcelain mortar while cooling with liquid nitrogen. A weighed portion (50-200 mg) of the obtained powder was quickly introduced into 0.4% hydrochloric acid (0.6-1.0 ml) heated to 98° C. The resulting suspension was kept at 98° C. for 15 min with occasional shaking. After adding an internal standard (3-O—(CD3)-glucose solution), the mixture was shaken and centrifuged until the solid fractions were completely separated. The solution was analyzed by ^2H NMR.

[4] = Distribution and metabolism of deuterated valine mixture in tissues, isotopomer ratio by LC-MS/MS (Example 6); format: in vivo, Balb/c mice; conditions: 60 minutes after 20 mg i.p., 49% in initial drug
Method: In this example, L-valine-d6/d7, partially deuterated at the α position and positions 4, 4′, was used. (S-valine-d6/d7). The total molar fraction of α-deuterated forms of valine in the initial diagnostic drug is 49%.
After administration, the animal was kept in a separate cage with access to food and water. After 60 minutes after administration, the animal was devitalized by dislocation of the cervical vertebrae. Samples of animal organs and tissues were quickly removed and frozen in liquid nitrogen. Frozen samples were ground in a porcelain mortar while cooling with liquid nitrogen. A weighed portion (about 50 mg) of the obtained powder was quickly introduced into 0.4% hydrochloric acid (1.0 ml) heated to 98° C. The resulting suspension was kept at 98° C. for 15 min with occasional shaking, then centrifuged. The solution was diluted with 3 volumes of acetonitrile, centrifuged after 15 minutes, diluted with 9 volumes of water, and centrifuged again. The ratio of isotopomers d5, d6, and d7 of valine was determined by LC-MS/MS.

[5] = in vivo; cited from earlier work
[6] = in vivo; cited from earlier work; remark: listed apart in the source
[7] = rat, in vivo, 0.021 mg/kg; cited from earlier work
[8] = in vivo; cited from earlier work; remark: listed apart in the source
4T1 breast carcinoma = assay: Deuterium tomography (2H MRI) to visualize mouse 4T1 breast carcinoma in vivo (Examples 2, 4); conditions: for accumulation in tumor tissue (2H tomograms): i.p. to 20 g mouse: 20 mg valine-d6, 30 mg L-alanine-d3, 10 mg L-phenylalanine-d7; for accumulation selectivity in various organs (2H tomograms): i.p. to 20 g mouse: 30 mg L-alanine-d3, 10 mg L-phenylalanine-d7
Method: In this example, experiments were performed on Balb/c mice grafted with 4T1 breast carcinoma (injection of 5·10^5 cells/60 μl under the left forepaw 12 days before the experiment). An animal weighing 20 g was injected intraperitoneally with a solution of 20 mg valine-d6 in 0.5 ml of water. In 10 minutes after the injection, the animal was immobilized with isoflurane and placed on a heated bed in a tomograph. The surface ^2H receiving coil was positioned over the anterior part of the animal's body from the dorsal side, as indicated in FIG. 2 by the dotted line.
In this example, experiments were performed on Balb/c mice grafted with 4T1 breast carcinoma (injection of 5·10^5 cells/60 μl under the left forepaw 12 days before the experiment).
An animal weighing 20 g was injected intraperitoneally with a solution:
a) 30 mg of L-alanine-3,3,3-d3 in 0.5 ml of water; or
In 10 minutes after the injection, the animal was immobilized with isoflurane and placed on a heated bed in a tomograph. The surface ^2H receiving coil was positioned over the anterior part of the animal's body from the dorsal side, as indicated in FIG. 4 by the dotted line.

[9] = Solubility in water for injection; format: physicochemical; conditions: 10 mg in 1.0 ml of water was the dose given

With [2H]O[2H] [D2O] the “selective accumulation in various organs and tissues” value [1] was “do not show selective accumulation”.

With [2H]C([2H])(N)C(=O)O [glycine-2,2-d2] the “loss of deuterium in vivo” value [2] was “lose deuterium in vivo very quickly”.

For [2H]C([2H])([2H])C([C@H](N)C(=O)O)C([2H])([2H])[2H] [valine-d6, Valine-4,4,4,4′, 4′, 4′-D6], the “accumulation in tumor tissue compared to kidneys, heart, brain, skeletal muscles and adipose tissue” value ([3]; 1 hour after the injection) was “increased accumulation”, the “[valine-d6], 30 min.” value ([3]; Brain) was 1.6 µmol/g and the “[valine-d6], 1 hour” value ([3]; Brain) was 2.6 µmol/g. The “[valine-d6], 30 min.” value ([3]; Fat tissue) was 4.0 µmol/g, the “[valine-d6], 1 hour” value ([3]; Fat tissue) was 1.7 µmol/g and the “[valine-d6], 30 min.” value ([3]; Heart) was 7.5 µmol/g. The “[valine-d6], 1 hour” value ([3]; Heart) was 8.0 µmol/g, the “[valine-d6], 30 min.” value ([3]; Kidneys) was 9.3 µmol/g and the “[valine-d6], 1 hour” value ([3]; Kidneys) was 7.5 µmol/g. The “[valine-d6], 30 min.” value ([3]; Liver) was 17.9 µmol/g, the “[valine-d6], 1 hour” value ([3]; Liver) was 11.5 µmol/g and the “[valine-d6], 30 min.” value ([3]; Lungs) was 10.6 µmol/g. The “[valine-d6], 1 hour” value ([3]; Lungs) was 8.8 µmol/g, the “[valine-d6], 30 min.” value ([3]; Sceletal muscles) was 7.4 µmol/g and the “[valine-d6], 1 hour” value ([3]; Sceletal muscles) was 7.7 µmol/g. The “[valine-d6], 30 min.” value ([3]; Spleen) was 14.7 µmol/g, the “[valine-d6], 1 hour” value ([3]; Spleen) was 14.1 µmol/g and the “Tumor:tissue ratio, 30 min.” value ([3]; Tumor:Brain) was 5.8. For the same compound, the “Tumor:tissue ratio, 1 hour” value ([3]; Tumor:Brain) was 3.8, the “Tumor:tissue ratio, 30 min.” value ([3]; Tumor:Fat tissue) was 2.3 and the “Tumor:tissue ratio, 1 hour” value ([3]; Tumor:Fat tissue) was 5.8. The “Tumor:tissue ratio, 30 min.” value ([3]; Tumor:Heart) was 1.2, the “Tumor:tissue ratio, 1 hour” value ([3]; Tumor:Heart) was 1.2 and the “Tumor:tissue ratio, 30 min.” value ([3]; Tumor:Kidneys) was 0.99. The “Tumor:tissue ratio, 1 hour” value ([3]; Tumor:Kidneys) was 1.3, the “Tumor:tissue ratio, 30 min.” value ([3]; Tumor:Liver) was 0.51 and the “Tumor:tissue ratio, 1 hour” value ([3]; Tumor:Liver) was 0.85. The “Tumor:tissue ratio, 30 min.” value ([3]; Tumor:Lungs) was 0.87, the “Tumor:tissue ratio, 1 hour” value ([3]; Tumor:Lungs) was 1.1 and the “Tumor:tissue ratio, 30 min.” value ([3]; Tumor:Sceletal muscles) was 1.2. The “Tumor:tissue ratio, 1 hour” value ([3]; Tumor:Sceletal muscles) was 1.3, the “Tumor:tissue ratio, 30 min.” value ([3]; Tumor:Spleen) was 0.63 and the “Tumor:tissue ratio, 1 hour” value ([3]; Tumor:Spleen) was 0.70. For the same compound, the “[valine-d6], 30 min.” value ([3]; Tumor) was 9.2 µmol/g, the “[valine-d6], 1 hour” value ([3]; Tumor) was 9.8 µmol/g and the “excess over the physiological concentration of free valine in animal tissues” value ([3]; physiological free valine about 0.5 μmol/g) was “more than 10 fold”.

For “Valine-2,4,4,4,4 “, 4”, 4′-D7 (mixed with valine-4,4,4,4 “, 4”, 4′-D6) [L-valine-d6/d7]”, the “total mole fraction of α-deuterated valine” value (shortened to “total mole fraction”) ([4]; adipose tissue) was 11%, the “total mole fraction” value ([4]; blood) was 12% and the “total mole fraction” value ([4]; brain) was 5%. For the same compound, the “total mole fraction” value ([4]; kidneys) was 17%, the “total mole fraction” value ([4]; liver) was 11% and the “total mole fraction” value ([4]; skeletal muscles) was 11%. The “total mole fraction” value ([4]; spleen) was 13% and the “total mole fraction” value ([4]; tumor) was 12%.

In the case of [2H]O [DOH], the “non-toxic replacement of water in the body” value [5] is listed as 10-30%.

For CC(C)C(N)[14C](=O)O (racemic) [DL-1-^14C-valine], the “elimination of isotopic label in the form of CO2” value [6] is given as 28%, the “organ of main accumulation” value [6] is given as “accumulate mainly in the pancreas” and the “increase of absolute concentration of valine in liver and kidneys over physiological” value [7] is given as “no more than 0.3 nmol/g”.

For CC(C)C(N)[14C](=O)O (stereo not shown) [^14C-valine], the “time within which most of the label accumulated in liver and pancreas is included in protein” value [8] is given as ≤ 10 min.

For CC(C)[C@H](N)[11C](=O)O [1-^11C-valine], the “organ of main accumulation” value [6] is given as “accumulate mainly in the pancreas”.

In the case of [2H]C([2H])([2H])[C@H](N)C(=O)O [L-alanine-3,3,3-d3], the “loss of deuterium in vivo” value [2] is reported as “lose deuterium in vivo very quickly”, the “accumulation in tumor tissue (2H tomograms)” value (4T1 breast carcinoma) is reported as “do not accumulate in tumor tissue” and the “accumulation selectivity in various organs (2H tomograms)” value (4T1 breast carcinoma) is reported as “do not show accumulation selectivity in various organs”.

In the case of [2H]c1c([2H])c([2H])c(C([2H])([2H])[C@H](N)C(=O)O)c([2H])c1[2H] [L-phenylalanine-β,β,2,3,4,5,6-d7], the solubility [9] is reported as “low solubility”, the “accumulation in tumor tissue (2H tomograms)” value (4T1 breast carcinoma) is reported as “do not accumulate in tumor tissue” and the “accumulation selectivity in various organs (2H tomograms)” value (4T1 breast carcinoma) is reported as “do not show accumulation selectivity in various organs”.
